Measurements as given in ChEMBL document CHEMBL3091438, “Discovery and characterisation of hydrazines as inhibitors of the immune suppressive enzyme, indoleamine 2,3-dioxygenase 1 (IDO1)” (Bioorg Med Chem, 2013).

Experiments:
[1] = biological target: T1, Indoleamine 2,3-dioxygenase 1 (Homo sapiens, UniProt P14902); assay: Inhibition of recombinant human IDO1 expressed in Escherichia coli EC538 using L-tryptophan as substrate after 1 hr
Target sequence in this assay (P14902 whole entry): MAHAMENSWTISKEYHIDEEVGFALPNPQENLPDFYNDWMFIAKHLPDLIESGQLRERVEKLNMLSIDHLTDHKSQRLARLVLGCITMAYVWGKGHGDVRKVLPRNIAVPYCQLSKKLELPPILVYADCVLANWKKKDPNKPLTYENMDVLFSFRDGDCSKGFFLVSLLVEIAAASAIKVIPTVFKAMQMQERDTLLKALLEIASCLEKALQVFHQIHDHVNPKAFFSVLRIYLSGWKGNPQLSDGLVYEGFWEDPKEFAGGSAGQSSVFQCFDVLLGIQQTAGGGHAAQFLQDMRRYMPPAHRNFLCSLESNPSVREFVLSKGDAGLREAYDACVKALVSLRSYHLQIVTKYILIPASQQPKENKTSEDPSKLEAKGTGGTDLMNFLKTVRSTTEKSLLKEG

[2] = biological target: T1, Indoleamine 2,3-dioxygenase 1; assay: Inhibition of recombinant human IDO1 expressed in Escherichia coli EC538 using L-tryptophan as substrate at 0.1 mM after 1 hr relative to control
Target sequence in this assay (P14902 whole entry, looked up): as the sequence (P14902 whole entry) above

[3] = biological target: T1, Indoleamine 2,3-dioxygenase 1; assay: Ratio of 2-hydrazinobenzothiazole IC50 to compound IC50 for recombinant human IDO1
Target sequence in this assay (P14902 whole entry, looked up): as the sequence (P14902 whole entry) above

[4] = biological target: T1, Indoleamine 2,3-dioxygenase 1; assay: Inhibition of human IDO1 expressed in mouse LLTC cells using L-tryptophan as substrate after 24 hrs; type: cell-based
Target sequence in this assay (P14902 whole entry): as above

[5] = biological target: Indoleamine 2,3-dioxygenase 1 (Mus musculus, UniProt P28776); assay: Inhibition of mouse IDO1 expressed in mouse LLTC cells using L-tryptophan as substrate after 24 hrs; type: cell-based
Chain of Indoleamine 2,3-dioxygenase 1 (Mus musculus, UniProt P28776) (P28776 whole entry): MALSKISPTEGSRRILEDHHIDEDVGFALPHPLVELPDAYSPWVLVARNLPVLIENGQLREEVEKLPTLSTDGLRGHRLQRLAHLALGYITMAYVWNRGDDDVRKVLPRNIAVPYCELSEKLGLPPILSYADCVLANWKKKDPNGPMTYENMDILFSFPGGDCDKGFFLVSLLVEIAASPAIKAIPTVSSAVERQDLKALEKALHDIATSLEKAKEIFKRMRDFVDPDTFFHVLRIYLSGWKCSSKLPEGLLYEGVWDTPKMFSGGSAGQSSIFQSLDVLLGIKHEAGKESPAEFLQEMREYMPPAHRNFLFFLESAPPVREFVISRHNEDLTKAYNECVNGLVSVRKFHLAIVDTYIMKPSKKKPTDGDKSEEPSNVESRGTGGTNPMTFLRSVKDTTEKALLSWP

[6] = Cytotoxicity against mouse LLTC cells at IC50 by MTT assay; type: cell-based

Row | IC50 [1] [µM] | inhibition [2] [%] | Structure (SMILES) | other results
1 | 126 | – | Sc1nc2ccccc2s1 [2-MERCAPTOBENZOTHIAZOLE] | –
2 | – | 13 | O=C(O)/C=N/Nc1nc2ccccc2s1 | –
3 | > 500 | – | Nc1nc2ccc([N+](=O)[O-])cc2s1 | –
4 | – | -1 | NNC(=O)c1ccc2nc(NN)sc2c1 | –
5 | 1.5 | 86 | NNc1nc2cc(Cl)ccc2s1 | –
6 | 8 | 91 | NNc1nc2ccccc2s1 | IC50 [4]: 62.3 µM; IC50 [5]: 50.5 µM; Activity [6]: Non-toxic
7 | > 500 | – | c1ccc2sc(SSc3nc4ccccc4s3)nc2c1 [BENZOTHIAZYL DISULFIDE] | –
8 | 652 | – | c1ccc2scnc2c1 [BENZO[D]THIAZOLE] | –
9 | – | 30 | CC(C)=NNc1nc2ccccc2s1 | –
10 | – | 2 | N#CCCN(N)c1nc2ccccc2s1 | –
11 | – | 46 | NNc1nc2cc(C(F)(F)F)ccc2s1 | –
12 | – | 37 | Cc1ccc2nc(NN)sc2c1 | –

Row | Structure (SMILES) | IC50 [1] [µM] | inhibition [2] [%] | other results
13 | NNc1ccccc1 [PHENYLHYDRAZINE] | 0.25 | – | Ratio IC50 [3]: 32; IC50 [4]: 1.3 µM; IC50 [5]: 0.2 µM; Activity [6]: Non-toxic
